In patent publication US9149618B2, “Built-in non-verbal instructional device integratable to applicators” (NANOMED SKINCARE, INC., priority 2010, dated 2015):
Where two headings read alike, the source gives them in different places.

Assays:
[1] = In vitro permeation study, Franz-type diffusion cells, porcine ear skin; conditions: for Permeation rates of LC / Cumulative amount of LC: porcine ear skin, FMA; for Cumulative amount of LC: 8 h
[2] = In vivo permeation study: pharmacokinetics and absolute bioavailability of LC in rats; conditions: rat; for bioavailability / AUC(0-inf) / Cmax / Tmax: male, Sprague-Dawley, plasma; for AUC(0-inf): AUC0-∞; for Plasma concentration: intravenous 200 mg/rat
Source text: Male Sprague-Dawley rats (250 g±10 g) were equally divided into four groups (3 for each): group A, B, C and D. Before administration, all rats allowed to acclimatize for one week. One day before administration, rats were fasted overnight but allowed access to water. The hair of abdominal skin was carefully shaved by electric clippers for Group A and B. The rats in group A were pretreated by FMA with an area of 2 cm^2, the group B was untreated as a control. Then hydrogel patch containing LC 750 mg was applied to each rat by an adhesive housing for 6 h. Group C and Group D were control groups of oral and intravenous injection administration of 1 ml LC solution (200 mg/ml). A volume of 0.5 ml blood samples were taken before administration and at predetermined time intervals after LC administration. Plasma samples were immediately separated by centrifugation at 4000×g for 7 mins, and stored at −80° C. until assay.
Pretreatment method of samples: 120 μl of plasma was deproteinized with 600 μl of 0.6 M perchloric acid. The mixture was shaken for 30 s and allowed to stand in an ice bath for about 15 mins. After centrifuged at 4000×g for 7 mins, 500 μl of supernatant was transferred to a new tube in which 300 μl of 0.5 M K2CO3 was added, the mixture was shaken for 30 s and incubated in an ice-bath for 15 mins. Precipitate of KClO4 was removed by centrifugation at 4000×g for 7 mins, and 200 μl of the supernatant with free LC was separated for the assay.
Assays: The concentration of free LC in serum was determined by enzymatic assay kit with a limitation detection of 0.8 μg/ml.
Maximum plasma concentration (Cmax) and the time to reach this peak (Tmax) were directly identified from the pharmacokinetic curves (LC plasma concentration versus time). Area under the plasma concentration-time curve (AUC0→∞) was calculated by using the trapezoidal rule. Absolute bioavailability (A.B.) of LC after oral and FMA administration comparing with intravenous administration was calculated using the following equation:

[3] = In vitro permeation study, Franz-type diffusion cells, human cadaver skin; assay type: in vitro ADME
Procedure: Samples of full-thickness dermatomed human cadaver skins (≈800 μm) were obtained from the Burns Institute, 304th Clinical Department, The General Hospital of PLA, Trauma Center of Postgraduate Medical College and were free from overt pathology. The skin samples were kept frozen in liquid nitrogen and used within 3 months.
(§1) The method of the percutaneous absorption study adheres to the Test Guideline 428 of Organization for Economic Cooperation and Development (2004). The experiment was performed with a system employing Franz-type glass diffusion cells. The temperature in the receptor chamber was maintained at physiological temperature of 37.0±0.1° C. with an external, constant temperature circulating water bath.
Skin samples were treated using FMA delivery system. The insertion force was provided by the applicator. The skins without FMA treatment were used as control. The skin was mounted on a receptor chamber (2.5 ml) with the stratum corneum side facing upward into the donor chamber with effective permeation area of 0.66 cm^2. The receptor and donor chambers were filled with PBS solution, and the receptor fluid was continuously stirred with a magnetic bar at 280 rpm to maintain homogeneity. After 1 h equilibration, the solution in the receptor chamber was replaced with fresh PBS, and 300 μl of LC solution or 300 mg of LC gel was applied on the skin in the donor chamber, which was then covered with a parafilm to avoid any evaporation process. […] The samples were analyzed by HPLC/UV. The results were expressed as the mean±S.D. (n=3-4 independent samples).
The quantitative determination of LC was performed by HPLC using methanol-190 mM KH2PO4 water (87:13) as mobile phase at a flow rate of 0.6 ml/min, by LC-2010A (Shimadzu, Japan). […] The column eluant was monitored at 225 nm. […]
The cumulative amount of drug permeated per unit area versus time was plotted. The permeation rates of LC were calculated from the slope of linear portion of the plots. […] Statistically significant differences were determined using the analysis of variance (ANOVA) with P<0.05 as a minimal level of significance.

[4] = Skin penetration of active agent on applicator pre-treated skin
[5] = In vitro permeation study, Franz-type diffusion cells, rat skin; assay type: in vitro ADME
Source text: Male Sprague-Dawley rats (220-250 g) were provided by Beijing Weitong Lihua Experimental Animals Ltd. Co. (Beijing China). Forty-eight hours before the test, rats were anesthetized by ether, and then the abdominal hair of each rat was shaved with an electric hair clipper. At the beginning of in vitro studies, animals were euthanized using carbon dioxide and full-thickness skins were removed. All research protocols adhered to the Guide for the Care and Use of Laboratory Animals (1996).
as §1
Skin samples were treated using FMA delivery system. The insertion force was provided by the applicator. The skins without FMA treatment were used as control. The skin was mounted on a receptor chamber (2.5 ml) with the stratum corneum side facing upward into the donor chamber with effective permeation area of 0.66 cm^2. The receptor and donor chambers were filled with PBS solution, and the receptor fluid was continuously stirred with a magnetic bar at 280 rpm to maintain homogeneity. After 1 h equilibration, the solution in the receptor chamber was replaced with fresh PBS, and 300 μl of LC solution or 300 mg of LC gel was applied on the skin in the donor chamber, which was then covered with a parafilm to avoid any evaporation process. The samples of receptor cell were withdrawn through at predetermined time intervals and the receptor phase was immediately refreshed by equal volume of PBS buffer to keep a constant volume. The samples were analyzed by HPLC/UV. The results were expressed as the mean±S.D. (n=3-4 independent samples).
The quantitative determination of LC was performed by HPLC using methanol-190 mM KH2PO4 water (87:13) as mobile phase at a flow rate of 0.6 ml/min, by LC-2010A (Shimadzu, Japan). The injection volume was 20 μl. The analysis was performed in a YMC-Pack ODS-A C18 column with dimensions of 250 mm×4.6 mm i.d., 5 μm particle size (YMC Inc., USA). The column eluant was monitored at 225 nm. The detection limit is 20 μg ml^−1. The inter- and intra-day variability was less than 5%.
The cumulative amount of drug permeated per unit area versus time was plotted. The permeation rates of LC were calculated from the slope of linear portion of the plots. Data analysis was carried out with Microsoft Excel, Version 2000. Results were presented as the mean±S.D. (n=3-4 independent samples). Statistically significant differences were determined using the analysis of variance (ANOVA) with P<0.05 as a minimal level of significance.

[6] = With FMA, CP980 gel patch 750 mg/rat, 6 h application

Q: With `C[N+](C)(C)C[C@H](O)CC(=O)[O-]` [LC, (3R)-3-hydroxy-4-trimethylazaniumylbutanoate] as the molecule, how does the “Permeation rates, FMA” value ([1]; porcine ear skin dermatomed ≈800 μm, FMA pretreatment, donor 640 mg/mL) read?
A: 11.08 ± 2.05 mg/cm^2/h

Q: What about the “Permeation rates, Passive Diffusion” value ([1]; porcine ear skin dermatomed ≈800 μm, without FMA, donor 640 mg/mL) of the same molecule?
A: 0.37 ± 0.04 mg/cm^2/h

Q: What about the “Permeation rates of LC” value ([1]; donor concentration 650 mg/ml) of the same molecule?
A: 11.08±2.05 mg/cm^2/h

Q: What about the “Cumulative amount of LC” value ([1]; donor concentration 650 mg/ml) of the same molecule?
A: 93.23±17.76 mg/cm^2

Q: And the “Permeation rates of LC” value ([1]; donor concentration 800 mg/ml)?
A: 11.80±1.50 mg/cm^2/h

Q: And the “Cumulative amount of LC” value ([1]; donor concentration 800 mg/ml)?
A: 97.20±12.60 mg/cm^2

Q: What about the bioavailability ([2]; iv, 200 mg) of the same molecule?
A: 100%

Q: What about the AUC(0-inf) ([2]; iv, 200 mg, Intravenous 200 mg/rat) of the same molecule?
A: 3680 µg·h/mL

Q: And the Cmax ([2]; po, 200 mg)?
A: 40 ± 11 µg/mL

Q: What about the Tmax ([2]; po, 200 mg) of the same molecule?
A: 2 h

Q: And the bioavailability ([2]; po, 200 mg)?
A: 8%

Q: And the AUC(0-inf) ([2]; po, 200 mg, Oral 200 mg/rat)?
A: 309 µg·h/mL

Q: And the Cmax ([2]; topical or ocular, 750 mg)?
A: 530 ± 86 µg/mL

Q: What about the Tmax ([2]; topical or ocular, 750 mg) of the same molecule?
A: 4 h

Q: And the bioavailability ([2]; topical or ocular, 750 mg)?
A: 22%

Q: And the AUC(0-inf) ([2]; topical or ocular, 750 mg, FMA delivery 750 mg/rat)?
A: 3020 µg·h/mL

Q: What about the “Cmax after FMA delivery relative to oral administration” value ([2]; FMA 750 mg/rat vs oral 200 mg/rat) of the same molecule?
A: about 13 fold

Q: What about the “AUC0-∞” value ([2]; FMA delivery 750 mg/rat) of the same molecule?
A: 3049 µg·h/mL

Q: What about the Plasma concentration ([2]; at 3 min) of the same molecule?
A: 3900 ± 420 µg/mL

Q: What about the Plasma concentration ([2]; at 2 h) of the same molecule?
A: 270 ± 50 µg/mL

Q: What about the ER (enhancement ratio, FMA permeation rates/passive permeation rates) ([3]; human skin) of the same molecule?
A: 59

Q: And the “Permeation rates, FMA” value ([3]; human skin dermatomed ≈800 μm, FMA pretreatment, donor 640 mg/mL)?
A: 10.65 ± 2.12 mg/cm^2/h

Q: What about the “Permeation rates, Passive Diffusion” value ([3]; human skin dermatomed ≈800 μm, without FMA, donor 640 mg/mL) of the same molecule?
A: 0.18 ± 0.02 mg/cm^2/h

Q: And the “Apparent dose of LC” value [6]?
A: 200 mg/rat

Q: What about the “The residual amount in patch” value [6] of the same molecule?
A: 550 mg/rat

Q: What about the “The residual amount in patch” value (Without FMA, CP980 gel patch 750 mg/rat, 6 h application) of the same molecule?
A: 764 mg/rat

Q: And the “Difference between residual and initial content of patch” value (rat, in vivo)?
A: no significant difference

Q: And the “Skin penetration speed on applicator pre-treated skin” value [4]?
A: 10 times faster

Q: And the “Permeation rate through rat skin relative to human skin” value ([5]; after FMA-puncture)?
A: 3.7 times

Q: And the “Permeation rate through rat skin relative to human skin” value ([5]; passive diffusion)?
A: about 13.8 times

Q: What about the ER (enhancement ratio, FMA permeation rates/passive permeation rates) ([5]; rat skin) of the same molecule?
A: 16

Q: What about the “Permeation rates, FMA” value ([5]; rat skin full thickness, FMA pretreatment, donor 640 mg/mL) of the same molecule?
A: 40.16 ± 3.97 mg/cm^2/h

Q: What about the “Permeation rates, Passive Diffusion” value ([5]; rat skin full thickness, without FMA, donor 640 mg/mL) of the same molecule?
A: 2.49 ± 0.40 mg/cm^2/h
